BindingDB's records for PubMed 8510008 (Eli Lilly, 1993)
pKi: −log10 of the molar value.

Tests used:
[1] = target: 5-hydroxytryptamine receptor 2A (Rattus norvegicus, UniProt P14842)
[2] = target: T1, 5-hydroxytryptamine receptor 2C (Homo sapiens, UniProt P28335)
T1 sequence (P28335 whole entry): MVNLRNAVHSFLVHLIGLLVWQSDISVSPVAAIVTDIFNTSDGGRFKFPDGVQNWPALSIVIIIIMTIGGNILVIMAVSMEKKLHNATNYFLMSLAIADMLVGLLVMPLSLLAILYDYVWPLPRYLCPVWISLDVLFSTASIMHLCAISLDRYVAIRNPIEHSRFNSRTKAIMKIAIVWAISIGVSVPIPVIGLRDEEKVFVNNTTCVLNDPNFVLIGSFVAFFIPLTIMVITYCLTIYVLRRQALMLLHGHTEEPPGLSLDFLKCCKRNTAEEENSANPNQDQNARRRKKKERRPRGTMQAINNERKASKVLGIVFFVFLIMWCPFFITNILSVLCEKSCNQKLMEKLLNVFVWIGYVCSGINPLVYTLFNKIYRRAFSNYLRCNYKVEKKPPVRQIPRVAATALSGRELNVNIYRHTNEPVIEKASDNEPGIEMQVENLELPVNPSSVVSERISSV

[3] = target: 5-hydroxytryptamine receptor 2A (Sus scrofa, UniProt P50129)
[4] = target: 5-hydroxytryptamine receptor 2A (Macaca mulatta, UniProt P50128)
Chain of 5-hydroxytryptamine receptor 2A (Macaca mulatta, UniProt P50128) (P50128 whole entry): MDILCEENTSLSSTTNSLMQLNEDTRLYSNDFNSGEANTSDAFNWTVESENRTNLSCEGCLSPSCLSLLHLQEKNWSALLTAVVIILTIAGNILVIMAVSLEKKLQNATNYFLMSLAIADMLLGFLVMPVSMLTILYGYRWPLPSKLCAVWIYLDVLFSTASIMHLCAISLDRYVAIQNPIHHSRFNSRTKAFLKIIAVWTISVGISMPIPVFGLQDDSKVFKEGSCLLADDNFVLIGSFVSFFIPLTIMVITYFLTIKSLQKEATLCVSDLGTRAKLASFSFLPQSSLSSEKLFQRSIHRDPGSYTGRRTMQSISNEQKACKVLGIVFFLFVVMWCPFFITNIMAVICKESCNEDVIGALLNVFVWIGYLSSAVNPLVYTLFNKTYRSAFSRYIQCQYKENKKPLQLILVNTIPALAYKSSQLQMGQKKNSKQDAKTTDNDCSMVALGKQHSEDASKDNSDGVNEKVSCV

Chain of 5-hydroxytryptamine receptor 2A (Rattus norvegicus, UniProt P14842) (P14842 whole entry): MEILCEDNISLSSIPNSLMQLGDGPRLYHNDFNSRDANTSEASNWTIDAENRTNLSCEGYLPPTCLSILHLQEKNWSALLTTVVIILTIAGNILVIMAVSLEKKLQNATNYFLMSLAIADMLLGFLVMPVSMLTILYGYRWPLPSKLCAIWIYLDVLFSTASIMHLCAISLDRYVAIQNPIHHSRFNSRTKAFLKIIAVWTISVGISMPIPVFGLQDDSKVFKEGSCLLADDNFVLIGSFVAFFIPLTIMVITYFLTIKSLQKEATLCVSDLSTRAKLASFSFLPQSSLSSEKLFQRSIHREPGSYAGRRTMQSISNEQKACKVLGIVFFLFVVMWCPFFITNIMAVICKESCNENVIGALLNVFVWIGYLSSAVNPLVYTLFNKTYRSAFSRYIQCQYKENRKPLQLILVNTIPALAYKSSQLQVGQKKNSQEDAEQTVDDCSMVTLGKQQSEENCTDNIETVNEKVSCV
Chain of 5-hydroxytryptamine receptor 2A (Sus scrofa, UniProt P50129) (P50129 whole entry): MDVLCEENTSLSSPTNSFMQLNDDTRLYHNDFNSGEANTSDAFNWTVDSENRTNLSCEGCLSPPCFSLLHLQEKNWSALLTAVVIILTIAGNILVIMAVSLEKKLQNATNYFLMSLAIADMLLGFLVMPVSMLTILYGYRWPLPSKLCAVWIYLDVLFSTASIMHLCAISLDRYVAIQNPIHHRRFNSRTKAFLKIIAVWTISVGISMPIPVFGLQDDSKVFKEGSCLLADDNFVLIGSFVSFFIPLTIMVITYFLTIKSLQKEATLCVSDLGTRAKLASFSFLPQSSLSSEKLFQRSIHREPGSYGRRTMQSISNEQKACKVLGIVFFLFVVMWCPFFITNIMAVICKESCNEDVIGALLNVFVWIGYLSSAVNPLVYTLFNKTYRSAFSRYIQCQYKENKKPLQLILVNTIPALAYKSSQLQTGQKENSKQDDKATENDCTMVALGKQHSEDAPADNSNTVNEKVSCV

SMILES | pKi [1] | pKi [2] | pKi [3] | pKi [4]
COC1CCC(OC(=O)C2CC3c4cccc5c4c(cn5C(C)C)CC3N(C)C2)CC1 (stereo unspecified) [NSC_60262] | 7.96 | – | – | –
Cc1ccc2c(c1)c(CCN)cn2C(C)C [1-Isopropyl-5-Methyltryptamine] | 5.33 | < 5.00 | – | –
NCCc1c[nH]c2ccccc12 [1H-indole-3-ethanamine] | < 5.00 | 5.52 | 5.47 | –
CC(C)n1cc(CCN)c2ccccc21 [1-Isopropyltryptamine] | 5.41 | 5.15 | 5.24 | –
CN1C[C@H](C(=O)NC2CCCCC2)C[C@@H]2c3cccc4[nH]cc(c34)C[C@H]21 [LY-193525] | 7.38 | – | 8.44 | 8.68
CN1C[C@@H](NS(=O)(=O)N(C)C)C[C@@H]2c3cccc4c3c(cn4C)C[C@H]21 [MESULERGINE] | – | – | 7.27 | 7.35
CN1C[C@H](CNC(=O)OCc2ccccc2)C[C@@H]2c3cccc4c3c(cn4C)C[C@H]21 [METERGOLINE] | – | – | 9.43 | 9.09
CN1C[C@H](C(=O)N[C@@H]2CCC[C@@H]2O)C[C@@H]2c3cccc4[nH]cc(c34)C[C@H]21 [N-[(1R,2S)-2-Hydroxycyclopentyl]-6-methylergoline-8-beta-carboxamide] | 7.19 | – | – | –
NCCc1c[nH]c2ccc(Br)cc12 | 5.49 | 5.82 | – | –
CC(O)C(C)OC(=O)[C@@H]1C[C@@H]2c3cccc4c3c(cn4C)C[C@H]2N(C)C1 (stereo partly specified) [1,6-Dimethylergoline-8-carboxylic acid 2-hydroxy-1-methylpropyl ester] | 8.03 | – | 7.24 | 7.25
CC(C)Cn1cc2c3c(cccc31)[C@H]1C[C@@H](C(=O)OC(C)C(C)O)CN(C)[C@@H]1C2 (stereo partly specified) [LY-197541] | 6.62 | – | 6.83 | 6.82
Cc1ccc2[nH]cc(CCN)c2c1 [5-Methyl-tryptamine, 10] | 5.21 | 5.49 | – | –
CC(C)n1cc2c3c(cccc31)C1CC(C(=O)NC3CCCC3O)CN(C)C1C2 (stereo unspecified) [NSC_132049] | 8.24 | 7.56 | – | –
CC(O)C(C)OC(=O)C1CC2c3cccc4[nH]cc(c34)CC2N(C)C1 (stereo unspecified) [LY86057] | 7.25 | 8.48 | 8.34 | 8.49
COC1CCC(OC(=O)[C@@H]2C[C@@H]3c4cccc5[nH]cc(c45)C[C@H]3N(C)C2)CC1 (stereo partly specified) [LY-254239] | 7.38 | – | – | –
COc1ccc2c(c1)c(CCN)cn2C(C)C [1-Isopropyl-5-Methoxytryptamine] | 5.45 | – | 5.14 | –
CC(CO)NC(=O)C1C=C2c3cccc4[nH]cc(c34)CC2N(C)C1 (stereo unspecified) [CAS_60-79-7] | 7.33 | 7.51 | 8.42 | 8.47
CC(C)n1cc2c3c(cccc31)C1CC(C(=O)NC3CCCCC3)CN(C)C1C2 (stereo unspecified) [NSC_60740] | 8.16 | – | 7.51 | 7.58
COc1ccc2[nH]cc(CCN)c2c1 [tryptamine, 5-Methoxy] | – | 6.03 | 6.03 | –
CC(O)C(C)OC(=O)C1CC2c3cccc4c3c(cn4C(C)C)CC2N(C)C1 (stereo unspecified) [CAS_60634-51-7] | 8.14 | 7.51 | 7.40 | 7.48
CC(C)n1cc(CCN)c2cc(Br)ccc21 [5-Br-T, 1-Isopropyl] | 5.46 | 5.20 | – | –
